Laboratory results published in ChEMBL document CHEMBL3774312, “5-Substituted 3-isopropyl-7-[4-(2-pyridyl)benzyl]amino-1(2)H-pyrazolo[4,3-d]pyrimidines with anti-proliferative activity as potent and selective inhibitors of cyclin-dependent kinases” (Eur J Med Chem, 2016).
The source made the active and inactive calls. No cut-off for these calls is given here.

Assays:
[1] = target: Myosin light chain kinase, smooth muscle (Homo sapiens) (UniProt Q15746); assay: Inhibition of recombinant smMLCK (unknown origin) assessed as residual activity at 1 uM relative to control
[2] = target: Cyclin-dependent kinase 7 (Homo sapiens, UniProt P50613); assay: Inhibition of CDK7 (unknown origin)
[3] = target: Insulin-like growth factor 1 receptor (Homo sapiens) (UniProt P08069); assay: Inhibition of recombinant IGF1R (unknown origin) assessed as residual activity at 1 uM relative to control
Chain of Insulin-like growth factor 1 receptor (Homo sapiens) (P08069 31-736 limits assumed): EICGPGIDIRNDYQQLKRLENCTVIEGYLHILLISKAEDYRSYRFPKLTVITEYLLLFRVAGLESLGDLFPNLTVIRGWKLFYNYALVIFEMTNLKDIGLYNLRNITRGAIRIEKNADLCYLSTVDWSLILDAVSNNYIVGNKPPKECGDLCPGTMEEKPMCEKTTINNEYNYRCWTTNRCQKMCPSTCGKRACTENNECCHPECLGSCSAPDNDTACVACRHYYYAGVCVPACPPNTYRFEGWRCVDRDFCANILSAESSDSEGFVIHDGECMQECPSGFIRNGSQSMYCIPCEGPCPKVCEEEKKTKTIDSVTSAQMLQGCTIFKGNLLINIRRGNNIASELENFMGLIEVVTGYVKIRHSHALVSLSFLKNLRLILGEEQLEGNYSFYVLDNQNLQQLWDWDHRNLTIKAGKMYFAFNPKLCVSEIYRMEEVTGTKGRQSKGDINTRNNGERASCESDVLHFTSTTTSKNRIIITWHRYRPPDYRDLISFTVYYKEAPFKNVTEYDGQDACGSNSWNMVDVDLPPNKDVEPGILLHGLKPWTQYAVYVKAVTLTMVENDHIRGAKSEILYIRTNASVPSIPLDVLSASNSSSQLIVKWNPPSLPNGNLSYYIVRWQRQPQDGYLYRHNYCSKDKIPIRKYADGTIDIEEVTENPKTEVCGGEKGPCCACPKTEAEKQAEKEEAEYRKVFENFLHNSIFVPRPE
Chain of Insulin-like growth factor 1 receptor (Homo sapiens) (P08069 741-1367 limits assumed): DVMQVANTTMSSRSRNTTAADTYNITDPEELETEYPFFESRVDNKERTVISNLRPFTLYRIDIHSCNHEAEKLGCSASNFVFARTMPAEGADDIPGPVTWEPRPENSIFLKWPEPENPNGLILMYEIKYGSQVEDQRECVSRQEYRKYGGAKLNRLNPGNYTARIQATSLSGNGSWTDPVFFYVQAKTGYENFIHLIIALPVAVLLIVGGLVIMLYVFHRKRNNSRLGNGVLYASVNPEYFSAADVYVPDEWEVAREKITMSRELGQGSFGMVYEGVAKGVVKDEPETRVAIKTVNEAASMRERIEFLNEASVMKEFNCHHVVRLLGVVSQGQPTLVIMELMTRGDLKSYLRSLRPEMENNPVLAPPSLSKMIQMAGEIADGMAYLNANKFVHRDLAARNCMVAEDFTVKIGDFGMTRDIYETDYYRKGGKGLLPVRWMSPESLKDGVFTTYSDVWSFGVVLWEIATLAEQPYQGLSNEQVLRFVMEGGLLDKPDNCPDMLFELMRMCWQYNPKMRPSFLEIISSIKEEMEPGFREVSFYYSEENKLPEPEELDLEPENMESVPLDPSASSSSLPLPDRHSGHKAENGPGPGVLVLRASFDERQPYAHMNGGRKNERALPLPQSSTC

[4] = target: Ephrin type-A receptor 2 (Homo sapiens) (UniProt P29317); assay: Inhibition of recombinant EPHA2 (unknown origin) assessed as residual activity at 1 uM relative to control
Chain of Ephrin type-A receptor 2 (Homo sapiens) (P29317 whole entry): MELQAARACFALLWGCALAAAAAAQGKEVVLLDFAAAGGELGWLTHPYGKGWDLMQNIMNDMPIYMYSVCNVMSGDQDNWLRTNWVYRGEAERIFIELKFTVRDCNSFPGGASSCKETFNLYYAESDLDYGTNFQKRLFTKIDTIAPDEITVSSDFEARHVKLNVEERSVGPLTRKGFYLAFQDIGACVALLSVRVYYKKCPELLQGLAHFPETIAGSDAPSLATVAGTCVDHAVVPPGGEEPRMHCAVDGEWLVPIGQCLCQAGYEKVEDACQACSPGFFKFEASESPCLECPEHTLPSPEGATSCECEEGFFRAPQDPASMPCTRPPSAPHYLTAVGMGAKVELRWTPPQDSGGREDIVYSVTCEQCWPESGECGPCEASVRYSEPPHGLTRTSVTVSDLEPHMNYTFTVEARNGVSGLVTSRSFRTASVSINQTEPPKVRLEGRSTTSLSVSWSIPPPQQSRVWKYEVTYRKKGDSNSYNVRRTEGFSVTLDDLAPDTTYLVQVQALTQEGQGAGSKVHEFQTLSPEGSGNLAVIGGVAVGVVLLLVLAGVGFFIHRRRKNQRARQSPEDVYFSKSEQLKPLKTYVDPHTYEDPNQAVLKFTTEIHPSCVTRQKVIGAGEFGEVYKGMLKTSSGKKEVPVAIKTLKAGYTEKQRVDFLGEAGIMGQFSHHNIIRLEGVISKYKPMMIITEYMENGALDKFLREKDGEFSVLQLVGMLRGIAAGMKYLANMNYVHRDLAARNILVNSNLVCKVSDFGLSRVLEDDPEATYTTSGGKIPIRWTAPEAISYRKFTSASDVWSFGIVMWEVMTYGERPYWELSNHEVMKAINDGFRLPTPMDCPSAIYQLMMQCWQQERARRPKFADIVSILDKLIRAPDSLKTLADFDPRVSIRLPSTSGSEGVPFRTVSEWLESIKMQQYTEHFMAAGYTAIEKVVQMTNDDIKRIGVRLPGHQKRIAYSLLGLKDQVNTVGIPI

[5] = target: Cyclin-dependent kinase 1 (Homo sapiens, UniProt P06493); assay: Inhibition of CDK1 (unknown origin)
Chain of Cyclin-dependent kinase 1 (P06493 whole entry): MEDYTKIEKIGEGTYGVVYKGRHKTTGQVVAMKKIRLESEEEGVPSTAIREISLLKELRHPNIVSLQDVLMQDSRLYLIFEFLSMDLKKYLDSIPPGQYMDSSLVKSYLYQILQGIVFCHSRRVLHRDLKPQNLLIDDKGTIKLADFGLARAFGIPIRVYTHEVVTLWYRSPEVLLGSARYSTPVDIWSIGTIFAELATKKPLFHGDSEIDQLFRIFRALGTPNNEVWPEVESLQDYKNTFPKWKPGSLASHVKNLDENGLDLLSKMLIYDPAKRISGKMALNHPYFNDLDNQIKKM

[6] = Cell cycle arrest in BrdU pulse-labelled human HCT116 cells assessed as decrease in cells at S phase at 125 to 500 nM after 24 hrs by propidium iodide staining based flow cytometry; type: functional; conditions: HCT-116
G-361 = assay: Induction of apoptosis in human G361 cells assessed as caspase3 activation using Ac-DEVD-AMC as substrate at IC50 preincubated for 24 hrs followed by substrate addition measured after 3 hrs by fluorescence assay; type: functional, cell-based
[7] = target: Mitogen-activated protein kinase kinase kinase 11 (Homo sapiens) (UniProt Q16584); assay: Inhibition of recombinant MLK3 (unknown origin) assessed as residual activity at 1 uM relative to control
Chain of Mitogen-activated protein kinase kinase kinase 11 (Homo sapiens) (Q16584 whole entry, looked up): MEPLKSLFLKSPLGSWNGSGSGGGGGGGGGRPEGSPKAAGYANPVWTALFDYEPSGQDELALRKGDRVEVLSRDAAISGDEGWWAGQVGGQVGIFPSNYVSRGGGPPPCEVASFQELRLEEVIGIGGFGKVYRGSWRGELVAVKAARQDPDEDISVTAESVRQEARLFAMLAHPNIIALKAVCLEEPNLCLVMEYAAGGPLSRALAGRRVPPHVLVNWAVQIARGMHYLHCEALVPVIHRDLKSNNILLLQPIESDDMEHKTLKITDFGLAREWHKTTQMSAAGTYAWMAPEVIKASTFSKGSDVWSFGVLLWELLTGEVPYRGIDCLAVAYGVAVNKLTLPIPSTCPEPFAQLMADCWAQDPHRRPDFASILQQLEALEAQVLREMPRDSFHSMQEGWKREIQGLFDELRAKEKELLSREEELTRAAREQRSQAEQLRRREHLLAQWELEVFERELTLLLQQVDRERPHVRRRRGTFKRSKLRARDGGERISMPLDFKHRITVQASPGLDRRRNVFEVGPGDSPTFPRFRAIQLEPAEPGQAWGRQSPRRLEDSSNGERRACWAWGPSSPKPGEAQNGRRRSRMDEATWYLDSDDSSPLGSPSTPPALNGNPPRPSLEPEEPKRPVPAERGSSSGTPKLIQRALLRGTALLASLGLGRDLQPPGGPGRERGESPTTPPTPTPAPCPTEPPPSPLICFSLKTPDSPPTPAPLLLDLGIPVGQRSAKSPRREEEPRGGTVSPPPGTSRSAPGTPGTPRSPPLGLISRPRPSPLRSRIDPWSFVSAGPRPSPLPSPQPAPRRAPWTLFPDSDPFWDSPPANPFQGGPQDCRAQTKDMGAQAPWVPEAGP

MCF7 = assay: Cell cycle arrest in BrdU pulse-labelled human MCF7 cells assessed as accumulation at late G2/M phase at 8 to 250 nM after 24 hrs by propidium iodide staining based flow cytometry; type: functional
[8] = target: Ribosomal protein S6 kinase beta-1 (Homo sapiens) (UniProt P23443); assay: Inhibition of recombinant S6K1 (unknown origin) assessed as residual activity at 1 uM relative to control
[9] = target: RAC-alpha serine/threonine-protein kinase (Homo sapiens) (UniProt P31749); assay: Inhibition of recombinant PKBalpha (unknown origin) assessed as residual activity at 1 uM relative to control
Chain of RAC-alpha serine/threonine-protein kinase (Homo sapiens) (P31749 whole entry): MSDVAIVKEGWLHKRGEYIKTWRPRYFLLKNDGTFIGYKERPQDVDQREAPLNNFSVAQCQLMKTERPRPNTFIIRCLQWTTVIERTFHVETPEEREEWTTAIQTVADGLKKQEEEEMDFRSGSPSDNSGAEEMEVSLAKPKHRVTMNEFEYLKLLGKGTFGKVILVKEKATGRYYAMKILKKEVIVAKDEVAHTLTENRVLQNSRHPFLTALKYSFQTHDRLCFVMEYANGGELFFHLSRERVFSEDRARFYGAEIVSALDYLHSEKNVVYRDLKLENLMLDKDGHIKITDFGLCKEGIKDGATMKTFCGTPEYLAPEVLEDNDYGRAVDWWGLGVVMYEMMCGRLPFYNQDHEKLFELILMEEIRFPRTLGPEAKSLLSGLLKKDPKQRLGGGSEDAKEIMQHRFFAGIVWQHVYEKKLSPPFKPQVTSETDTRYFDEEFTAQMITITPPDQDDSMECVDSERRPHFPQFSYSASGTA

[10] = target: MAP/microtubule affinity-regulating kinase 3 (Homo sapiens) (UniProt P27448); assay: Inhibition of recombinant MARK3 (unknown origin) assessed as residual activity at 1 uM relative to control
Chain of MAP/microtubule affinity-regulating kinase 3 (Homo sapiens) (P27448 whole entry, looked up): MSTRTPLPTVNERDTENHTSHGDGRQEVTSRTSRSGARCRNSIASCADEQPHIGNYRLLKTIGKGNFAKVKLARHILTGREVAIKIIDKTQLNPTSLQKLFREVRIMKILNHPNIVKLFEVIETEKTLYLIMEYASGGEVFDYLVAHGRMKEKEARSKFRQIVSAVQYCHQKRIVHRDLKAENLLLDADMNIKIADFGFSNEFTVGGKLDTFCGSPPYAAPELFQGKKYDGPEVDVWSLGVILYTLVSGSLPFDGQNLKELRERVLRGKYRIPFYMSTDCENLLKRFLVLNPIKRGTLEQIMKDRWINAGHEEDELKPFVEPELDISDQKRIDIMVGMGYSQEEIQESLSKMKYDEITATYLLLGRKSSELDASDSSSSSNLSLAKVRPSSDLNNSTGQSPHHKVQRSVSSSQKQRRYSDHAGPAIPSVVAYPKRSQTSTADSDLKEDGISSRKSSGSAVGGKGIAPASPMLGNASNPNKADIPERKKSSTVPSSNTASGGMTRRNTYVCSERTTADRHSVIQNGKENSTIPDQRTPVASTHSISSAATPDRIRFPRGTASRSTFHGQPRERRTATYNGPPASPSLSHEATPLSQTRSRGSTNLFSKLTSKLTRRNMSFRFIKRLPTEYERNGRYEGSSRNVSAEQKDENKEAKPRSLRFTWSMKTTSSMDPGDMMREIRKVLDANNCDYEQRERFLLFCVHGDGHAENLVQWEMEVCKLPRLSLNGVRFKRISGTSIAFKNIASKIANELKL

[11] = target: Mitogen-activated protein kinase 14 (Homo sapiens) (UniProt Q16539); assay: Inhibition of recombinant p38alpha MAP kinase (unknown origin) assessed as residual activity at 1 uM relative to control
Chain of Mitogen-activated protein kinase 14 (Homo sapiens) (Q16539 whole entry): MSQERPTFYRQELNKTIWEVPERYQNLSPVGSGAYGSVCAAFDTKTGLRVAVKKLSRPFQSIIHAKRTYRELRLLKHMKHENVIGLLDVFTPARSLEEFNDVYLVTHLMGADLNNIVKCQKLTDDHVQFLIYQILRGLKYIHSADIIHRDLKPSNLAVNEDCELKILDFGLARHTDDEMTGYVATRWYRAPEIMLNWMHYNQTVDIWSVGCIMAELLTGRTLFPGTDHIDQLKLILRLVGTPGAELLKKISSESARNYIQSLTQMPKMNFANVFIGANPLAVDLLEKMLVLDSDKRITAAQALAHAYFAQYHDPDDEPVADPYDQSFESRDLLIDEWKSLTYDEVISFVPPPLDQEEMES

Homo sapiens = species on record: Homo sapiens; assay: Inhibition of recombinant PKA (unknown origin) assessed as residual activity at 1 uM relative to control

Activity [1]: 90%
IC50 [2]: 2.78 µM
Activity [3]: > 100%
Activity [4]: 92%
IC50 [5]: 0.777 µM
Activity [7]: 98%
Activity [8]: > 100%
Activity [9]: > 100%
Activity [10]: > 100%
Activity [11]: > 100%
Activity (Homo sapiens): 96%
Structure (SMILES): CC(O)CNc1nc(NCc2ccc(-c3ccccn3)cc2)c2[nH]nc(C(C)C)c2n1 (centres undefined)
Activity [6]: Active
Activity (G-361): Active
Activity (MCF7): Active
